Drawing on PMC9037111, “Structure-based design, synthesis, and biological evaluation of novel piperine–resveratrol hybrids as antiproliferative agents targeting SIRT-2” (RSC Advances, 2021), this text covers inhibition for one molecule.

Common to all, as to assay: cells
Holding throughout (design): species or system NCI-60 human tumour cell lines; NCI-60 one-dose screen at 10 uM, percent growth inhibition versus untreated control cells

The test system of one test is NCI/ADR-RES. Conditions: Homo sapiens, NCI/ADR-RES; growth inhibition, one dose; read-out: Growth% inhibition / 5e.
The subject of another test is CCRF-CEM. Conditions: Homo sapiens, CCRF-CEM; growth inhibition, one dose; read-out: Growth% inhibition / 5e.
In the next test the test system is RPMI-8226. Conditions: Homo sapiens, RPMI-8226; growth inhibition, one dose; read-out: Growth% inhibition / 5e.
A further test deals with HOP-62. Conditions: Homo sapiens, HOP-62; growth inhibition, one dose; read-out: Growth% inhibition / 5e.
In the next test the test system is SF-268. Conditions: Homo sapiens, SF-268; growth inhibition, one dose; read-out: Growth% inhibition / 5e.
Another test concerns BT-549. Conditions: Homo sapiens, BT-549; growth inhibition, one dose; read-out: Growth% inhibition / 5e.
Another test relates to HL-60(TB). Conditions: Homo sapiens, HL-60; growth inhibition, one dose; read-out: Growth% inhibition / 5e.
The subject of a further test is PC-3. Conditions: Homo sapiens, PC-3; growth inhibition, one dose; read-out: Growth% inhibition / 5e.
The subject of a further test is SK-MEL-28. Conditions: Homo sapiens, SK-MEL-28; growth inhibition, one dose; read-out: Growth% inhibition / 5e.
The next test relates to MDA-MB-231/ATCC. Conditions: Homo sapiens, MDA-MB-231; growth inhibition, one dose; read-out: Growth% inhibition / 5e.
In another test the test system is IGROV1. Conditions: Homo sapiens, IGROV-1; growth inhibition, one dose; read-out: Growth% inhibition / 5e.
The next test deals with NCI-H226. Conditions: Homo sapiens, NCI-H226; growth inhibition, one dose; read-out: Growth% inhibition / 5e.
A further test deals with LOX IMVI. Conditions: Homo sapiens, LOX IMVI; growth inhibition, one dose; read-out: Growth% inhibition / 5e.
The next test has as its system HOP-92. Conditions: Homo sapiens, HOP-92; growth inhibition, one dose; read-out: Growth% inhibition / 5e.
The test system of a further test is UACC-257. Conditions: Homo sapiens, UACC-257; growth inhibition, one dose; read-out: Growth% inhibition / 5e.
The test system of a further test is 786-0. Conditions: Homo sapiens, 786-0; growth inhibition, one dose; read-out: Growth% inhibition / 5e.
Another test has as its system OVCAR-3. Conditions: Homo sapiens, OVCAR-3; growth inhibition, one dose; read-out: Growth% inhibition / 5e.

On to `CCN(CC)c1ccc(/C=N/NC(=O)/C=C/C=C/c2ccc3c(c2)OCO3)c(O)c1` [5e, (2E,4E)-5-(Benzo[d][1,3]dioxol-5-yl)-N′-((E)-4-(diethylamino)-2-hydroxybenzylidene)penta-2,4-dienehydrazide], for which the inhibition at 10 µM in the test on NCI/ADR-RES was 82.5%; in the test on CCRF-CEM it was 78.3%; with RPMI-8226, 46.4%; in the test on HOP-62 it was 71.5%; in the test on SF-268 it was 66.3%; in the test on BT-549, 48.2%. For the same molecule, the inhibition at 10 µM in the test on HL-60(TB) came to 97.3%; in the test on PC-3, 59.1%; with SK-MEL-28, 48%; in the test with MDA-MB-231/ATCC it was 56.8%; with IGROV1, 61.8%; with NCI-H226, 50.5%. Further, the inhibition at 10 µM in the test on LOX IMVI amounted to 81.8%; in the test on HOP-92 it was 51.6%; with UACC-257 it was 75.8%; with 786-0, 52.8%; in the test with OVCAR-3, 95.1%.
